According to EP0116444A2, “Improvements in or relating to benzazepine derivatives” (ELI LILLY AND COMPANY, priority 1983, dated 1984):
Where a name gives a salt, the structure may show the parent alone. Read-outs that look alike come from different tables or passages of the source.

System: spontaneously hypertensive rats
Test: Determination of antihypertensive activity (blood pressure and heart rate) in anesthetized spontaneously hypertensive rats
Format: in vivo
Settings: 10 mg./kg. i.p. in aqueous solution, anesthetized spontaneously hypertensive male rats, average of two or more experiments; for change in vivo at 10 mg/kg: Rattus norvegicus, ip
Procedure: Spontaneously hypertensive male rats were anesthetized with methoxyflurane and α-chloralose (120 mg./kg., i.v.). An aqueous solution of the compound of formula I to be tested was administered i.p. to the animal following a 15-20 minute equilibrium period. Systemic arterial blood pressure was measured from the right carotid artery via a Statham P23 ID pressure transducer and recorded on a Model R411 Beckman Dynograph recorder. Heart rate was recorded with a Beckman 9857B cardiotachometer triggered by the pulse pressure. Mean arterial pressure was calculated as the diastolic pressure plus one third of the pulse pressure. Antihypertensive responses were measured at the maximal reduction in blood pressure occurring within 30 minutes after drug administration as compared to the baseline measurements taken prior to administration of the compound. The effect on heart rate was determined at the same time the maximum reduction in blood pressure was seen and was also compared with the baseline heart rate prior to compound administration. The results in Table I are reported as the maximal reduction in blood pressure and the corresponding effect on heart rate for certain compounds of formula I. The results are the average of two or more experiments.

[1] = heart rate at the time of maximum reduction in blood pressure vs pre-treatment baseline, minus = decrease, read-out: Effect on heart rate
[2] = maximal reduction in mean arterial blood pressure within 30 minutes of compound administration vs pre-treatment baseline, minus = reduction, read-out: Effect on blood pressure
[3] = heart rate at the time of maximum reduction in blood pressure vs pre-treatment baseline, minus = decrease
[4] = maximal reduction in mean arterial blood pressure within 30 minutes of compound administration vs pre-treatment baseline, minus = reduction

Molecule	change in vivo at 10 mg/kg [1]	change in vivo at 10 mg/kg [2]	Effect on heart rate [3]	Effect on blood pressure [4]
COc1cc2c(cc1O)C=CN=C(N)C2 [Example 28, 2-Amino-7-hydroxy-8-methoxy-1H-3-benzazepine hydrochloride]	0%	-11%	–	–
NC1=NC=Cc2cc3c(cc2C1)OCO3 [Example 9, 2-Amino-7,8-(methylenedioxy)-lH-3-benzazepine hydrochloride]	-11%	-19%	–	–
CCOc1cc2c(cc1OCC)CC(N)=NC=C2 [Example 14, 2-Amino-7,8-diethoxy-lH-3-benzazepine hydrochloride]	-8%	-18%	–	–
Cc1cc2c(cc1C)CC(N)=NC=C2 [Example 2, 2-Amino-7,8-dimethyl-lH-3-benzazepine hydrochloride]	-21.7%	-46.7%	–	–
CCNC1=NC=Cc2cc(OC)c(OC)cc2C1 [Example 22, 2-Ethylamino-7,8-dimethoxy-lH-3-benzazepine]	2%	-13%	–	–
CNC1=NC=Cc2ccccc2C1 [Example 16, 2-Methylamino-1H-3-benzazepine]	-9%	-8%	–	–
NC1=NC=Cc2ccc3c(c2C1)CCCC3 [Example 35, 2-amino-8,9,10,11-tetra-hydro-lH-naphth[1,2-d]azepine hydrochloride]	-12%	-33%	–	–
CC(C)CNC1=NC=Cc2ccccc2C1 [Example 18, 2-Isobutylamino-lE-3-benzazepine]	-7%	-17%	–	–
CCC(C)NC1=NC=Cc2ccccc2C1 (stereo not drawn) [Example 17, 2-Sec-butylamino-lH-3-benzazepine]	-13%	-22%	–	–
COc1cc2c(cc1O)CC(N)=NC=C2 [Example 27, 2-Amino-7-methoxy-8-hydroxy-lE-3-benzazepine hydrochloride]	-12%	-29%	–	–
COc1cc2c(cc1OC)C(C)C(N)=NC=C2 (stereo not drawn) [Example 13, 1-Methyl-2-amino-7,8-dimethoxy-1H-3-benzazepine hydrochloride]	-2%	-22%	–	–
NC1=NC=Cc2ccc3ccccc3c2C1 [Example 30, 2-Amino-1H-naphth[1,2-d]azepine hydrochloride]	-6%	-37%	–	–
COc1cc2c(cc1OC)CC(NC1CC1)=NC=C2.Cl [Example 12, 2-Cyclopropylamino-7,8-dimethoxy-lH-3-benzazepine hydrochloride]	–	–	-8.0%	-25.0%
Cc1ccc(C)c2c1C=CN=C(N)C2 [Example 26, 2-Amino-6,9-dimethyl-lH-3-benzazepine hydrochloride]	–	-44%	–	–
COc1cc2c(cc1OC)CC(NC(C)C)=NC=C2 [Example 15, 2-Isopropylamino-7,8-dimethoxy-lH-3-benzazepine hydrochloride]	-3%	-10%	–	–
COc1cc(C)c(OC)c2c1CC(N)=NC=C2 [Example 33, 2-Amino-7-methyl-6,9-dimethoxy-lH-3-benzazepine hydrochloride]	-43%	-47%	–	–
NC1=NC=Cc2cc3ccccc3cc2C1 [Example 3, 2-Amino-lH-naphth[2,3-d]azepine]	-20%	-31%	–	–
COc1cc2c(cc1C)CC(N)=NC=C2 [Example 8, 2-Amino-7-methoxy-8-methyl-1H-3-benzazepine hydrochloride]	-31%	-54%	–	–
NC1=NC=Cc2cc3c(cc2C1)CCCC3 [Example 34, 2-Amino-7,8,9,10-tetrahydro-1H-naphth[2,3-d]-azepine hydrochloride]	-15%	-30%	–	–

Molecule	change in vivo at 10 mg/kg [1]	change in vivo at 10 mg/kg [2]	Effect on heart rate [3]	Effect on blood pressure [4]
C1=Cc2ccccc2CC(NC2CC2)=N1 [Example 19, 2-Cyclopropylamino-lH-3-benzazepine]	-8%	-20%	–	–
CCOc1cc2c(cc1OC)C=CN=C(N)C2 [Example 37, 2-Amino-8-ethoxy-7-methoxy-lH-3-benzazepine hydrochloride]	-23%	-48%	–	–
C#CCNC1=NC=Cc2cc(OC)c(OC)cc2C1 [Example 29, 2-Propargylamino-7,8-dimethoxy-lH-3-benzazepine hydrochloride]	-11%	-29%	–	–
NC1=NC=Cc2ccc([N+](=O)[O-])cc2C1 [Example 10, 2-Amino-8-nitro-lH-3-benzazepine]	-22%	-55%	–	–
C=CCNC1=NC=Cc2cc(OC)c(OC)cc2C1 [Example 23, 2-Allylamino-7,8-dimethoxy-lH-3-benzazepine]	-5%	-15%	–	–
C=CCNC1=NC=Cc2ccccc2C1 [Example 20, 2-Allylamino-lE-3-benzazepine]	-15%	-20%	–	–
COc1cc2c(cc1F)CC(N)=NC=C2 [Example 36, 2-Amino-8-fluoro-7-methoxy-1H-3-benzazepine hydrochloride]	-8%	-31%	–	–
CCc1cc2c(cc1CC)CC(N)=NC=C2 [Example 1, 2-Amino-7,8-diethyl-1H-3-benzazepine hydrochloride]	–	-24%	–	–
CCOc1cc2c(cc1OC)CC(N)=NC=C2 [Example 7, 2-Amino-7-ethoxy-8-methoxy-lH-3-benzazepine hydrochloride]	-3%	-36%	–	–
COc1ccc2c(c1)CC(N)=NC=C2 [Example 4, 2-Amino-8-methoxy-1H-3-benzazepine hydrochloride]	-23.5%	-29.5%	–	–
2-Amino-7,8-dimethoxy-lH-3-benzazepine hydrochloride [Example 6]	–	–	-15.0%	-56.0%
2-Amino-7,8-dimethoxy-lH-3-benzazepine [Example 5]	–	–	-21.0%	-43.0%
CCOc1cc2c(cc1OC)CC(NC1CC1)=NC=C2 [Example 25, 2-Cyclopropylamino-7-ethoxy-8-methoxy-lH-3-benzazepine hydrochloride]	-6%	-9%	–	–
Cc1ccc2c(c1)CC(N)=NC=C2 [Example 24, 2-Amino-8-methyl-lH-3-benzazepine]	-22%	-35%	–	–
NC1=NC=Cc2cc3c(cc2C1)CCC3 [Example 31, 2-Amino-1,7,8,9-tetrahydroindeno[5,6-d]-azepine hydrochloride]	-16%	-40%	–	–
CNC1=NC=Cc2cc(OC)c(OC)cc2C1 [Example 11, 2-Methylamino-7,8-dimethoxy-lH-3-benzazepine]	-7%	-36%	–	–
CC(C)NC1=NC=Cc2ccccc2C1 [Example 21, 2-Isopropylamino-lH-3-benzazepine]	-6%	-16%	–	–
COc1ccc(OC)c2c1C=CN=C(N)C2 [Example 32, 2-Amino-6,9-dimethoxy-lH-3-benzazepine hydrochloride]	-13%	-32%	–	–
